Common to all, as to format: cell-based
For assay [1], the system named is Human myeloid monocytic leukemia cell line (MV-4-11). As to the kind of experiment: Inhibition of MV-4-11 cell proliferation (CellTiter luminescent viability). Conditions: Homo sapiens, MV4-11, 96 hours; for inhibition at 0.01 µM: MV-4-11, 10 nM, read-out: Inhibition Rate at 10 nM (%); for inhibition at 0.5 µM: MV-4-11, 500 nM, read-out: Inhibition Rate at 500 nM (%). Here is the method:
(§1) The tumor cells used herein were cultured in a cell culture medium listed in table 3 at 37 °C in an incubator with 5% CO2. Prior to experimentation, all cell lines used were correctly identified by STR profiling, and tested negative for mycoplasma contamination using a mycoplasma detection kit through routine screenings.
(§2) The IC50 values of the compounds of the present disclosure (including the compounds in Table 1, Table 2, and Examples 1-468) were determined using the CellTiter-Meiluncell Luminescent Cell Viability Assay Kit from Dalian Meilun Biotech Co., Ltd. The detailed procedure is as follows: Tumor cells were seeded in 96-well cell culture plates at the densities specified in Table 4. On the following day, the test compounds of the present disclosure were subjected to serial dilution. The dilution can be performed according to one of the following two methods: • (1) The first dilution method: The test compounds of the present disclosure (including the compounds in Table 1, Table 2, and Examples 1-468) were subjected to 5-fold serial dilutions starting from a highest concentration of 2000 μM, resulting in a total of 9 concentrations from high to low (2000, 400, 80, 16, 3.2, 0.64, 0.128, 0.0256, 0.00512 μM). Subsequently, 0.5 μL of the test compound dilution was transferred into the 96-well plate containing the cells, with each well containing 100 μL of cell culture medium. […] Into the 96-well plate, the diluted test compounds and corresponding detection reagents were added, resulting in final test compound concentrations of 500 nM and 10 nM, respectively. The experimental procedure is described below using the diluted 2 μM test compound as an example.
(§3) 0.5 μL of the aforementioned diluted compound of the present disclosure (including the compounds in Table 1, Table 2, and Examples 1-468) was added to the seeded cells in 100 μL of medium, yielding a final test compound concentration of 10 nM. After the cells were treated with the compounds of the present disclosure for a specified period, the cell viability assay reagent was added to the culture medium according to the kit's instructions to determine cell viability. […] All controls were treated using the same procedure as the compounds of the present disclosure. The growth inhibition curves for the compounds of the present disclosure were plotted using Prism GraphPad software, and the IC50 values were calculated therefrom.

Assay [2] relates to Human Multiple myeloma cell line (MM.1S). Nature of the assay: Inhibition of MM.1S cell proliferation (CellTiter luminescent viability). Conditions: Homo sapiens, MM1.S, 96 hours; for inhibition at 0.01 µM: 10 nM, read-out: Inhibition Rate at 10 nM (%); for inhibition at 0.5 µM: 500 nM, read-out: Inhibition Rate at 500 nM (%). On the procedure: as §1, §2, §3
For assay [3], the system named is Human acute lymphocytic leukemia T lymphocytes cell line (CCRF-CEM). Nature of the assay: Inhibition of CCRF-CEM cell proliferation (CellTiter luminescent viability). Conditions: Homo sapiens, 96 h; for inhibition at 0.01 µM: 10 nM, read-out: Inhibition Rate at 10 nM (%); for inhibition at 0.5 µM: 500 nM, read-out: Inhibition Rate at 500 nM (%). Here is the method:
as §1, §2, §3

Assay [4] concerns Human Acute T Lymphoblastic Leukemia Cells (Molt-4). Nature of the assay: Inhibition of Molt-4 cell proliferation (CellTiter luminescent viability). Conditions: Homo sapiens; for inhibition at 0.01 µM: read-out: Inhibition Rate at 10 nM (%); for inhibition at 0.5 µM: read-out: Inhibition Rate at 500 nM (%). Here is the method:
as §1, §2, §3

[5] abbreviates: Table IL2, BCR-ABL inhibitor-based.
The mark [6] stands for this setting: Table IL1, BCR-ABL inhibitor-based.
Setting [7] is: Table IL3, BCR-ABL inhibitor-based.
[8] abbreviates: MOLT-4, Molt-4, 10 nM, Table IN3.
Where [9] appears, read: MOLT-4, Molt-4, 500 nM, Table IN3.
Setting [10] is: MOLT-4, 96 h, Table IA2, IRAK4 inhibitor-based, Molt-4, 10 nM, 96 hours.
[11] abbreviates: MOLT-4, 96 h, Table IA2, IRAK4 inhibitor-based, Molt-4, 500 nM, 96 hours.

Read-outs that look alike come from different tables or passages of the source.

On to `Cc1nc(Nc2ncc(C(=O)Nc3c(C)cccc3Cl)s2)cc(N2CCN(CCO)CC2)n1` [Dasatinib, reference compound], for which the inhibition at 0.01 µM in assay [1] (setting [5]) was 10 to 15%; in assay [2] (setting [6]), 0 to 5%; in assay [3] (setting [7]), 10 to 15%. Besides, the inhibition at 0.5 µM in assay [1] (setting [5]) was in the range of 40 to 50%; in assay [2] (setting [6]) it was 15 to 20%; in assay [3] (setting [7]) it was 15 to 20%.
With `N#Cc1ccc(O[C@H]2CC[C@H](NC(=O)c3ccc(N4CCC(CN5CCN(c6cc(F)c7c(c6)C(=O)N(N6CCC(=O)NC6=O)C7=O)CC5)CC4)nn3)CC2)cc1Cl` [GT-05233, N-((1r,4r)-4-(3-chloro-4-cyanophenoxy)cyclohexyl)-6-(4-((4-(2-(2,4-dioxotetrahydropyrimidin-1(2H)-yl)-7-fluoro-1,3-dioxoisoindolin-5-yl)piperazin-1-yl)methyl)piperidin-1-yl)pyridazine-3-carboxamide], in assay [3] (Table IF2, AR inhibitor-based), the inhibition at 0.01 µM was 15 to 20% and the inhibition at 0.5 µM fell in the range of 20 to 30%.
For `O=C1CCN(N2C(=O)c3ccc(CN4CCC(N5CCN(c6ncc(C(=O)Nc7ccc(OC(F)(F)Cl)cc7)cc6-c6cc[nH]n6)CC5)CC4)cc3C2=O)C(=O)N1` [GT-08225, N-(4-(chlorodifluoromethoxy)phenyl)-6-(4-(1-((2-(2,4-dioxotetrahydropyrimidin-1(2H)-yl)-1,3-dioxoisoindolin-5-yl)methyl)piperidin-4-yl)piperazin-1-yl)-5-(1H-pyrazol-3-yl)nicotinamide], in assay [3] (setting [7]), the inhibition at 0.01 µM lay in the range of 10 to 15% and the inhibition at 0.5 µM lay in the range of 30 to 40%.
With `O=C1CCN(N2Cc3cc(CN4CCN(C5CCN(c6ncc(C(=O)Nc7ccc(OC(F)(F)Cl)cc7)cc6-c6cc[nH]n6)CC5)CC4)ccc3C2=O)C(=O)N1` [GT-08226, N-(4-(chlorodifluoromethoxy)phenyl)-6-(4-(4-((2-(2,4-dioxotetrahydropyrimidin-1(2H)-yl)-1-oxoisoindolin-5-yl)methyl)piperazin-1-yl)piperidin-1-yl)-5-(1H-pyrazol-3-yl)nicotinamide], in assay [3] (setting [7]), the inhibition at 0.01 µM is 5 to 10% and the inhibition at 0.5 µM is 30 to 40%.
Regarding `C[C@@H]1CNC(=O)c2cc3ccc(C(=O)Nc4cnn(Cc5ccc(N6CCC(N7CCN(CC8CCN(c9ccc%10c(c9)C(=O)N(N9CCC(=O)NC9=O)C%10=O)CC8)CC7)CC6)cc5)c4)nc3n21` [GT-08343, (R)—N-(1-(4-(4-(4-((1-(2-(2,4-dioxotetrahydropyrimidin-1(2H)-yl)-1,3-dioxoisoindolin-5-yl)piperidin-4-yl)methyl)piperazin-1-yl)piperidin-1-yl)benzyl)-1H-pyrazol-4-yl)-9-methyl-6-oxo-6,7,8,9-tetrahydropyrido[3′,2′: 4,5]pyrrolo[1,2-a]pyrazine-2-carboxamide], the inhibition at 0.01 µM in assay [4] (MOLT-4, Molt-4, 10 nM, Table IN2) was 20 to 30%; in assay [4] (setting [8]), 30 to 40%. Besides, the inhibition at 0.5 µM in assay [4] (MOLT-4, Molt-4, 500 nM, Table IN2) lay within 30 to 50%; in assay [4] (setting [9]), 60 to 70%.
As for `C[C@@H]1CNC(=O)c2cc3ccc(C(=O)Nc4cnn(Cc5ccc(N6CCC(N7CCN(CC8CCN(c9cccc%10c9C(=O)N(N9CCC(=O)NC9=O)C%10=O)CC8)CC7)CC6)cc5)c4)nc3n21` [GT-08344, (R)—N-(1-(4-(4-(4-((1-(2-(2,4-dioxotetrahydropyrimidin-1(2H)-yl)-1,3-dioxoisoindolin-4-yl)piperidin-4-yl)methyl)piperazin-1-yl)piperidin-1-yl)benzyl)-1H-pyrazol-4-yl)-9-methyl-6-oxo-6,7,8,9-tetrahydropyrido[3′,2′: 4,5]pyrrolo[1,2-a]pyrazine-2-carboxamide], the inhibition at 0.01 µM in assay [4] (setting [8]) is 5 to 10%. For the same molecule, the inhibition at 0.5 µM in assay [4] (setting [9]) lay within 80 to 100%.
Turning to `Cc1ccc(C(=O)Nc2ccc(N3CCN(CC4CCN(c5ccc6c(c5)C(=O)N(N5CCC(=O)NC5=O)C6=O)CC4)CC3)c(C(F)(F)F)c2)cc1C#Cc1cnc2cccnn12` [GT-08354, N-(4-(4-((1-(2-(2,4-dioxotetrahydropyrimidin-1(2H)-yl)-1,3-dioxoisoindolin-5-yl)piperidin-4-yl)methyl)piperazin-1-yl)-3-(trifluoromethyl)phenyl)-3-(imidazo[1,2-b]pyridazin-3-ylethynyl)-4-methylbenzamide], in assay [2] (setting [6]), the inhibition at 0.01 µM fell in the range of 15 to 20% and the inhibition at 0.5 µM lay in the range of 20 to 30%.
For `O=C1CCN(N2C(=O)c3ccc(CN4CCN(c5ccc(-c6ccc7c8cnccc8n(CC(F)(F)F)c7c6)cn5)CC4)cc3C2=O)C(=O)N1` [GT-08544, 2-(2,4-dioxotetrahydropyrimidin-1(2H)-yl)-5-((4-(5-(5-(2,2,2-trifluoroethyl)-5H-pyrido[4,3-b]indol-7-yl)pyridin-2-yl)piperazin-1-yl)methyl)isoindoline-1,3-dione], in assay [2] (Table IJ1, Tau inhibitor-based), the inhibition at 0.01 µM fell in the range of 30 to 40% and the inhibition at 0.5 µM is 40 to 50%.
`Cc1cc(-c2ccc3c4cnccc4n(C)c3c2)cnc1N1CCN(CC2CCN(c3ccc4c(c3)C(=O)N(N3CCC(=O)NC3=O)C4=O)CC2)CC1` [GT-08555, 2-(2,4-dioxotetrahydropyrimidin-1(2H)-yl)-5-(4-((4-(3-methyl-5-(5-methyl-5H-pyrido[4,3-b]indol-7-yl)pyridin-2-yl)piperazin-1-yl)methyl)piperidin-1-yl)isoindoline-1,3-dione]: the inhibition at 0.01 µM lay within 30 to 40% in assay [1] (Table IJ2, Tau inhibitor-based) and 30 to 40% in assay [2] (Table IJ1, Tau inhibitor-based). Further, the inhibition at 0.5 µM is 70 to 80% in assay [1] (Table IJ2, Tau inhibitor-based) and 60 to 70% in assay [2] (Table IJ1, Tau inhibitor-based).
Regarding `COc1cc2nn([C@H]3CC[C@H](CN4C[C@H]5C[C@@H]4CN5c4ccc5c(c4)C(=O)N(N4CCC(=O)NC4=O)C5=O)CC3)cc2cc1NC(=O)c1cccc(C(F)(F)F)c1` [GT-08663, N-(2-((1R,4r)-4-(((1R,4R)-5-(2-(2,4-dioxotetrahydropyrimidin-1(2H)-yl)-1,3-dioxoisoindolin-5-yl)-2,5-diazabicyclo[2.2.1]heptan-2-yl)methyl)cyclohexyl)-6-methoxy-2H-indazol-5-yl)-3-(trifluoromethyl)benzamide], the inhibition at 0.01 µM in assay [4] (setting [10]) lay in the range of 10 to 15%. Also, the inhibition at 0.5 µM in assay [4] (setting [11]) lay within 15 to 20%.
In the same order, the values of `COc1cc2nn([C@H]3CC[C@H](CN4CC5CCC(C4)N5c4ccc5c(c4)C(=O)N(N4CCC(=O)NC4=O)C5=O)CC3)cc2cc1NC(=O)c1cccc(C(F)(F)F)c1` [GT-08665, N-(2-((1r,4r)-4-((8-(2-(2,4-dioxotetrahydropyrimidin-1(2H)-yl)-1,3-dioxoisoindolin-5-yl)-3,8-diazabicyclo[3.2.1]octan-3-yl)methyl)cyclohexyl)-6-methoxy-2H-indazol-5-yl)-3-(trifluoromethyl)benzamide] are 15 to 20% and 15 to 20%.
In the same order, the values of `Cc1cc(-c2nc(C(=O)Nc3cc4oc(N5CCOCC5)nc4nc3N3CC[C@@H](O)C3)co2)ccn1` [emavusertib, Emavusertib, reference compound] are 3 to 7% and 0 to 3%.

The record behind these values is patent publication US20260364184A1, “COMPOUND BASED ON OXOISOINDOLINYL-SUBSTITUTED TETRAHYDROPYRIMIDINE-DIONE AND USE THEREOF” (GLUETACS THERAPEUTICS (SHANGHAI) CO., LTD., priority 2023, published 2026).
